Results: patent US8530525B2 (priority 2009, dated 2013)
pIC50: −log10 of the molar value.

Experiments:
[1] = target: α7 neuronal nAChR (Homo sapiens, UniProt P36544); details: cited from earlier work
[2] = target: α3β4 (Homo sapiens, UniProt P30926+P32297); details: cited from earlier work
[3] = in vivo; cited from earlier work
[4] = tested on: population spikes (PS) of the hippocampal slice
[5] = tested on: population spikes (PS) recorded from the CA1 area of the rat hippocampal slice; format: cell-based

Chain of α3β4 (P32297 32-505): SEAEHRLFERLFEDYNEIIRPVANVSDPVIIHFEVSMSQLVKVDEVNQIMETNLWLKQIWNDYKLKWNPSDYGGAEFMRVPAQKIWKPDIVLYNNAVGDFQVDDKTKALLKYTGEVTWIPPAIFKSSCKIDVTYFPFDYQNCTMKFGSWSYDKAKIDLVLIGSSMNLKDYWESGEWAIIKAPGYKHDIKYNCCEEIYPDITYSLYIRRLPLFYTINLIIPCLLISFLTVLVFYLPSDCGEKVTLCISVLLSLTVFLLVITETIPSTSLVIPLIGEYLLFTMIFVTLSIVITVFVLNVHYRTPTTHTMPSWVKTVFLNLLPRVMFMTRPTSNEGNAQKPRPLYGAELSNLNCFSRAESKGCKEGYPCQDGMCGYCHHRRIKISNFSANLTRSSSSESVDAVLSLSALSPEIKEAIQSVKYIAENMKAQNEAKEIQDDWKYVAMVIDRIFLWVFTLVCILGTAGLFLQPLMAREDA
Chain of α3β4 (P30926 22-498): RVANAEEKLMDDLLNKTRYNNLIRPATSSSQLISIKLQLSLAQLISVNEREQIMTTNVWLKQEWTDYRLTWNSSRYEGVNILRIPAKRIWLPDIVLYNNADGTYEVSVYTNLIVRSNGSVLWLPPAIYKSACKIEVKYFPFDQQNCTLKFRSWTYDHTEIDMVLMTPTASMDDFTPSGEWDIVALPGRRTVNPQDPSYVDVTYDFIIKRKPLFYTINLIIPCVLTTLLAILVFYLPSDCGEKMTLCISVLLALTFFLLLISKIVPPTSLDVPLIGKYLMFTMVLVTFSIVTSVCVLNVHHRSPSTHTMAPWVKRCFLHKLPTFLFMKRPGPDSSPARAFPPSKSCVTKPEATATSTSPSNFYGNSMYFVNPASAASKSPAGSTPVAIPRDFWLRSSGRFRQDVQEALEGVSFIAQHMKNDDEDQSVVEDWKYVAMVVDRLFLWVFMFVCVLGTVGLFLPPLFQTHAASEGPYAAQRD
Chain of α7 neuronal nAChR (P36544 23-502): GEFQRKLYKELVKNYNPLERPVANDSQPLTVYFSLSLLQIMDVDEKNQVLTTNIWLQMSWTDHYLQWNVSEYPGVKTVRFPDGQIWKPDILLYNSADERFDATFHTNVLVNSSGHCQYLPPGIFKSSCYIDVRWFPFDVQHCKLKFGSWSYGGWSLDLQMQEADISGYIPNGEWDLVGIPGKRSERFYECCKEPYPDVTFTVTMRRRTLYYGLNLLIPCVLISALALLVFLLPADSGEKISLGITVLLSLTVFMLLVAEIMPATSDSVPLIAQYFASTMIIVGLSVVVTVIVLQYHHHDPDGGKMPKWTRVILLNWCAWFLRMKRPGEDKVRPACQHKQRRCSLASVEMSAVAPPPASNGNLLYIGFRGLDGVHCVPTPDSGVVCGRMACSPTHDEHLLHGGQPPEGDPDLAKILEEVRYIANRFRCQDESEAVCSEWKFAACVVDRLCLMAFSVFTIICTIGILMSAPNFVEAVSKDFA

## CC1=CC(O)CC(C)(O)C=CC(C(C)C)CCC(C)=CCC1 [4R cembranoid, (1S,2E,4R,6R,7E,11E)-cembra-2,7,11-triene-4,6-diol]
[1]
  Antagonism of α7 neuronal nAChR: subtype selective antagonist
[2]
  Activity at α3β4 subtypes: little activity
[3]
  Brain penetration: readily penetrates into the brain
  Metabolism and excretion: promptly metabolized in the liver and excreted as a soluble metabolite

## CN1[C@@H]2CC[C@H]1C[C@@H](OC(=O)C(CO)c1ccccc1)C2 (stereo partly shown) [atropine]
[4]
  Effect on PS area: did not affect PS area

## CCOP(=O)(OCC)Oc1ccc([N+](=O)[O-])cc1 [POX, paraoxon]
[5]
  Maximum inhibition of the PS: ~50%
[5]; read-out: POX IC50 for inhibition of PS
  pIC50: ~6.00
